The text below walks through data of patent publication US20230146675A1, “PYRIMIDO[5,4-d]PYRIMIDINE DERIVATIVES AS ENT INHIBITORS FOR THE TREATMENT OF CANCERS, AND COMBINATION THEREOF WITH ADENOSINE RECEPTOR ANTAGONISTS” (ITEOS BELGIUM SA, priority 2020, published 2023).

Some results are limits rather than exact numbers.

The assay deals with T1, human ENT1 (Homo sapiens, UniProt Q99808).
T1 sequence (Q99808 1-456): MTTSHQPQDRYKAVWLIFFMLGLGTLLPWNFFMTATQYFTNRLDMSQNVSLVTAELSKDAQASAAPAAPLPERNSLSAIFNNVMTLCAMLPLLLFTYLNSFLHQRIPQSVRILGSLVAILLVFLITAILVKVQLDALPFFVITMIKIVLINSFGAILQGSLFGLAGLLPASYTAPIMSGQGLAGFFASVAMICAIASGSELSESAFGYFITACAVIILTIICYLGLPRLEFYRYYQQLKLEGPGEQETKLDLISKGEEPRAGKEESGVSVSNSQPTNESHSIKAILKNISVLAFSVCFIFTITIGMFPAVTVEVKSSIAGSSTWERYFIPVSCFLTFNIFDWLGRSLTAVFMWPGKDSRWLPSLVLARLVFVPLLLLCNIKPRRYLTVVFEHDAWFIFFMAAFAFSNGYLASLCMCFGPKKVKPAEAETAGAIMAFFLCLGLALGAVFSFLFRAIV
The experiment in a line: ENT1 binding assay (competition with Sahenta-DY647 on JAR cells). The arrangement: JAR cells expressing ENT1 were bought from ATCC; host or cells: JAR cells. To be noted: binned IC50. The essentials: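 JAR cells were incubated with test compounds and the fluorescent ligand Sahenta-DY647 in competition. Plates were washed twice by centrifugation (4 min, 400 rcf, 4 °C). Binding potency was derived from the final fluorescence.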
Consider `COCCCNc1nc(N(CCOC)CCOC)nc2c(N3CCC(OC)CC3)nc(N(CCOC)CCOC)nc12` [Compound 51, N2,N2,N6,N6-tetrakis(2-methoxyethyl)-8-(4-methoxypiperidin-1-yl)-N4-(3-methoxypropyl)pyrimido[5,4-d]pyrimidine-2,4,6-triamine], for which the IC50 lay within 500 to 1000 nM. Next, `COCCN(CCOC)c1nc(N2CCN(c3ncn(C)n3)CC2)c2nc(N(CCOC)CCOC)nc(NCc3cccc(C#N)c3)c2n1` [Compound 224, 3-(((2,6-bis(bis(2-methoxyethyl)amino)-8-(4-(1-methyl-1H-1,2,4-triazol-3-yl)piperazin-1-yl)pyrimido[5,4-d]pyrimidin-4-yl)amino)methyl)benzonitrile]: less than 100 nM; `COCCN(CCOC)c1nc(N2CCN(C)C(=O)C2)c2nc(N(CCOC)CCOC)nc(N3CCN(C)C(=O)C3)c2n1` [Compound 187, 4,4′-(2,6-bis(bis(2-methoxyethyl)amino)pyrimido[5,4-d]pyrimidine-4,8-diyl)bis(1-methylpiperazin-2-one)]: 100 to 500 nM. In the case of `COCCN(CCOC)c1nc(N2CC[C@@H](O)C2)c2nc(N(CCOC)CCOC)nc(N3CCC(OC)CC3)c2n1` [Compound 93, (R)-1-(2,6-bis(bis(2-methoxyethyl)amino)-8-(4-methoxypiperidin-1-yl)pyrimido[5,4-d]pyrimidin-4-yl)pyrrolidin-3-ol], the half-maximal inhibitory concentration (IC50) lay within 500 to 1000 nM. The value for `COCCN(CCOC)c1nc(N2CC(=O)N(C)C(C)(C)C2)c2nc(N(CCO)CCO)nc(N3CCC(OC)CC3)c2n1` [Compound 312, 4-(6-(bis(2-hydroxyethyl)amino)-2-(bis(2-methoxyethyl)amino)-8-(4-methoxypiperidin-1-yl)pyrimido[5,4-d]pyrimidin-4-yl)-1,6,6-trimethylpiperazin-2-one] was 100 to 500 nM.

In turn, `COCCN(CCOC)c1nc(N2CCN(c3ncn(C)n3)CC2)c2nc(N(CCOC)CCOC)nc(NCc3cccc(OC(F)(F)F)c3)c2n1` [Compound 223, N2,N2,N6,N6-tetrakis(2-methoxyethyl)-8-(4-(1-methyl-1H-1,2,4-triazol-3-yl)piperazin-1-yl)-N4-(3-(trifluoromethoxy)benzyl)pyrimido[5,4-d]pyrimidine-2,4,6-triamine] yielded a half-maximal inhibitory concentration (IC50) of less than 100 nM. The value for `COCCN(CCOC)c1nc(N2CCN(c3ncn(C)n3)CC2)c2nc(N(CCOC)CCOC)nc(NCc3cccc(Cl)c3)c2n1` [Compound 221, N4-(3-chlorobenzyl)-N2,N2,N6,N6-tetrakis(2-methoxyethyl)-8-(4-(1-methyl-1H-1,2,4-triazol-3-yl)piperazin-1-yl)pyrimido[5,4-d]pyrimidine-2,4,6-triamine] was less than 100 nM. In turn, `COCCN(CCOC)c1nc(N2CCC(OC)CC2)c2nc(N3CCn4nncc4C3)nc(N3CCN(C)C(=O)C3)c2n1` [Compound 287, 4-(6-(bis(2-methoxyethyl)amino)-2-(6,7-dihydro-[1,2,3]triazolo[1,5-a]pyrazin-5(4H)-yl)-8-(4-methoxypiperidin-1-yl)pyrimido[5,4-d]pyrimidin-4-yl)-1-methylpiperazin-2-one] showed an IC50 of 100 to 500 nM. Next, `COCCN(CCOC)c1nc(N2CCC(OC)CC2)c2nc(N(CCOC)CCOC)nc(NCc3cccc(Cl)c3)c2n1` [Compound 141, N4-(3-chlorobenzyl)-N2,N2,N6,N6-tetrakis(2-methoxyethyl)-8-(4-methoxypiperidin-1-yl)pyrimido[5,4-d]pyrimidine-2,4,6-triamine]: less than 100 nM. Next, `COCCN(CCOC)c1nc(N2CCC(OC)CC2)c2nc(N(CCOC)CCOC)nc(NCc3cccc(-c4ncco4)c3)c2n1` [Compound 151, N2,N2,N6,N6-tetrakis(2-methoxyethyl)-8-(4-methoxypiperidin-1-yl)-N4-(3-(oxazol-2-yl)benzyl)pyrimido[5,4-d]pyrimidine-2,4,6-triamine]: 100 to 500 nM; `COCCN(CCOC)c1nc(N2CC(OC)C2)c2nc(N(CCOC)CCOC)nc(N3CCC(OC)CC3)c2n1` [Compound 86, 4-(3-methoxyazetidin-1-yl)-N2,N2,N6,N6-tetrakis(2-methoxyethyl)-8-(4-methoxypiperidin-1-yl)pyrimido[5,4-d]pyrimidine-2,6-diamine]: 100 to 500 nM; `COCCN(CCOC)c1nc(N2CCC(OC)CC2)c2nc(N(CCOC)CCOC)nc(NCc3cnco3)c2n1` [Compound 60, N2,N2,N6,N6-tetrakis(2-methoxyethyl)-8-(4-methoxypiperidin-1-yl)-N4-(oxazol-5-ylmethyl)pyrimido[5,4-d]pyrimidine-2,4,6-triamine]: 500 to 1000 nM. Next, `COCCN(CCOC)c1nc(N2CCN(C)C(=O)C2)c2nc(N(CCOC)CCOC)nc(N3CCN(c4ncn(C)n4)CC3)c2n1` [Compound 216, 4-(2,6-bis(bis(2-methoxyethyl)amino)-8-(4-(1-methyl-1H-1,2,4-triazol-3-yl)piperazin-1-yl)pyrimido[5,4-d]pyrimidin-4-yl)-1-methylpiperazin-2-one]: 100 to 500 nM; `COCCN(CCOC)c1nc(N2CCN(c3ncn(C)n3)CC2)c2nc(N(CCOC)CCOC)nc(NCc3cccc(S(C)(=O)=O)c3)c2n1` [Compound 226, N2,N2,N6,N6-tetrakis(2-methoxyethyl)-8-(4-(1-methyl-1H-1,2,4-triazol-3-yl)piperazin-1-yl)-N4-(3-(methylsulfonyl)benzyl)pyrimido[5,4-d]pyrimidine-2,4,6-triamine]: 100 to 500 nM; `COCCN(CCOC)c1nc(N2CCC(OC)CC2)c2nc(N(CCOC)CCOC)nc(NCc3cccc(OC(F)(F)F)c3)c2n1` [Compound 143, N2,N2,N6,N6-tetrakis(2-methoxyethyl)-8-(4-methoxypiperidin-1-yl)-N4-(3-(trifluoromethoxy)benzyl)pyrimido[5,4-d]pyrimidine-2,4,6-triamine]: less than 100 nM.

`COCCN(CCn1ccnc1)c1nc(N2CCN(C)C(=O)C2)c2nc(N(CCOC)CCOC)nc(N3CCC(OC)CC3)c2n1` [Compound 285, 4-(2-((2-(1H-imidazol-1-yl)ethyl)(2-methoxyethyl)amino)-6-(bis(2-methoxyethyl)amino)-8-(4-methoxypiperidin-1-yl)pyrimido[5,4-d]pyrimidin-4-yl)-1-methylpiperazin-2-one] returned a half-inhibitory concentration (IC50) of 100 to 500 nM. Next, `COCCN(CCOC)c1nc(N2CC(=O)N3CCCC3C2)c2nc(N(CCO)CCO)nc(N3CCC(OC)CC3)c2n1` (stereo not drawn) [Compound 314, 2-(6-(bis(2-hydroxyethyl)amino)-2-(bis(2-methoxyethyl)amino)-8-(4-methoxypiperidin-1-yl)pyrimido[5,4-d]pyrimidin-4-yl)hexahydropyrrolo[1,2-a]pyrazin-4(1H)-one]: 500 to 1000 nM. Next, `CCOCCN(CCOCC)c1nc(N2CCN(C)C(=O)C2)c2nc(N(CCOCC)CCOCC)nc(N3CCC(OC)CC3)c2n1` [Compound 199, 4-(2,6-bis(bis(2-ethoxyethyl)amino)-8-(4-methoxypiperidin-1-yl)pyrimido[5,4-d]pyrimidin-4-yl)-1-methylpiperazin-2-one]: less than 100 nM; `COCCN(Cc1cc(OC)c(OC)c(OC)c1)c1nc(N2CCN(C)C(=O)C2)c2nc(N(CCOC)CCOC)nc(N3CCC(OC)CC3)c2n1` [Compound 268, 4-(6-(bis(2-methoxyethyl)amino)-2-((2-methoxyethyl)(3,4,5-trimethoxybenzyl)amino)-8-(4-methoxypiperidin-1-yl)pyrimido[5,4-d]pyrimidin-4-yl)-1-methylpiperazin-2-one]: less than 100 nM; `COCCN(CCOC)c1nc(N2CCCC(F)(F)C2)c2nc(N(CCOC)CCOC)nc(N3CCCC(F)(F)C3)c2n1` [Compound 33, 4,8-bis(3,3-difluoropiperidin-1-yl)-N2,N2,N6,N6-tetrakis(2-methoxyethyl)pyrimido[5,4-d]pyrimidine-2,6-diamine]: less than 100 nM. With `COCCN(CCOC)c1nc(N2CCN(c3nccc(OC)n3)CC2)c2nc(N(CCOC)CCOC)nc(N3CCC(OC)CC3)c2n1` [Compound 125, N2,N2,N6,N6-tetrakis(2-methoxyethyl)-4-(4-methoxypiperidin-1-yl)-8-(4-(4-methoxypyrimidin-2-yl)piperazin-1-yl)pyrimido[5,4-d]pyrimidine-2,6-diamine], the IC50 is 100 to 500 nM. The value for `COCCN(CCOC)c1nc(N2CC(O)(C(F)(F)F)C2)c2nc(N(CCOC)CCOC)nc(N3CC(O)(C(F)(F)F)C3)c2n1` [Compound 11, 1,1′-(2,6-bis(bis(2-methoxyethyl)amino)pyrimido[5,4-d]pyrimidine-4,8-diyl)bis(3-(trifluoromethyl)azetidin-3-ol)] was less than 100 nM. The value for `COCCN(CCOC)c1nc(N2CCC(OC)CC2)c2nc(N(CCOC)CCOC)nc(NCC3CCOCC3)c2n1` [Compound 46, N2,N2,N6,N6-tetrakis(2-methoxyethyl)-8-(4-methoxypiperidin-1-yl)-N4-((tetrahydro-2H-pyran-4-yl)methyl)pyrimido[5,4-d]pyrimidine-2,4,6-triamine] was 100 to 500 nM; that for `CCN(CCN1CCCC1)c1nc(N2CCN(C)C(=O)C2)c2nc(N(CCOC)CCOC)nc(N3CCC(OC)CC3)c2n1` [Compound 267, 4-(6-(bis(2-methoxyethyl)amino)-2-(ethyl(2-(pyrrolidin-1-yl)ethyl)amino)-8-(4-methoxypiperidin-1-yl)pyrimido[5,4-d]pyrimidin-4-yl)-1-methylpiperazin-2-one] was 100 to 500 nM.

A word on the IC50: it is the concentration that gives 50% inhibition.
